# Assay results as given in the NIST ThermoML archive (doi:10.1016/j.fluid.2013.09.022).
# ± gives the expanded uncertainty stated by the source.
# Assay: xn = mol fraction of the nth substance listed
# Details: Gas, isochoric method
smiles,measurement,setting,value
"F/C=C/C(F)(F)F [trans-1,3,3,3-tetrafluoropropene] + O=C=O",molar volume,"282.98 K, 1378 kPa, x2 = 0.859",0.00149 ± 1e-05 m3/mol
same,molar volume,"292.75 K, 1458.4 kPa, x2 = 0.859",0.001491 ± 1e-05 m3/mol
same,molar volume,"293.11 K, 1207.5 kPa, x2 = 0.733",0.001776 ± 1e-05 m3/mol
same,molar volume,"293.15 K, 1053.5 kPa, x2 = 0.642",0.002057 ± 1e-05 m3/mol
same,molar volume,"302.65 K, 741.2 kPa, x2 = 0.254",0.002778 ± 1e-05 m3/mol
same,molar volume,"302.78 K, 834.7 kPa, x2 = 0.331",0.002626 ± 1e-05 m3/mol
same,molar volume,"302.95 K, 1530.5 kPa, x2 = 0.859",0.001492 ± 1e-05 m3/mol
same,molar volume,"303.12 K, 1086.9 kPa, x2 = 0.563",0.002066 ± 1e-05 m3/mol
same,molar volume,"303.12 K, 1281.1 kPa, x2 = 0.733",0.001777 ± 1e-05 m3/mol
same,molar volume,"303.15 K, 934.1 kPa, x2 = 0.459",0.002372 ± 1e-05 m3/mol
same,molar volume,"303.19 K, 1105.4 kPa, x2 = 0.642",0.002058 ± 1e-05 m3/mol
same,molar volume,"313.09 K, 773.6 kPa, x2 = 0.155",0.002926 ± 1e-05 m3/mol
same,molar volume,"313.1 K, 879.9 kPa, x2 = 0.331",0.002627 ± 1e-05 m3/mol
same,molar volume,"313.1 K, 1598.3 kPa, x2 = 0.859",0.001492 ± 1e-05 m3/mol
same,molar volume,"313.11 K, 824.7 kPa, x2 = 0.254",0.00278 ± 1e-05 m3/mol
same,molar volume,"313.11 K, 979 kPa, x2 = 0.459",0.002373 ± 1e-05 m3/mol
same,molar volume,"313.14 K, 1137.1 kPa, x2 = 0.563",0.002067 ± 1e-05 m3/mol
same,molar volume,"313.15 K, 1337.5 kPa, x2 = 0.733",0.001778 ± 1e-05 m3/mol
same,molar volume,"313.18 K, 1155.7 kPa, x2 = 0.642",0.002059 ± 1e-05 m3/mol
same,molar volume,"323.03 K, 1183.9 kPa, x2 = 0.563",0.002067 ± 1e-05 m3/mol
same,molar volume,"323.04 K, 918.1 kPa, x2 = 0.331",0.002628 ± 1e-05 m3/mol
same,molar volume,"323.06 K, 861.2 kPa, x2 = 0.254",0.002781 ± 1e-05 m3/mol
same,molar volume,"323.06 K, 1392.7 kPa, x2 = 0.733",0.001778 ± 1e-05 m3/mol
same,molar volume,"323.07 K, 808.6 kPa, x2 = 0.155",0.002928 ± 1e-05 m3/mol
same,molar volume,"323.07 K, 1661.1 kPa, x2 = 0.859",0.001493 ± 1e-05 m3/mol
same,molar volume,"323.09 K, 1019.8 kPa, x2 = 0.459",0.002374 ± 1e-05 m3/mol
same,molar volume,"323.12 K, 1201.6 kPa, x2 = 0.642",0.00206 ± 1e-05 m3/mol
same,molar volume,"332.99 K, 1059.7 kPa, x2 = 0.459",0.002375 ± 1e-05 m3/mol
same,molar volume,"333.02 K, 897.5 kPa, x2 = 0.254",0.002782 ± 1e-05 m3/mol
same,molar volume,"333.03 K, 1246.4 kPa, x2 = 0.642",0.002061 ± 1e-05 m3/mol
same,molar volume,"333.04 K, 1723.3 kPa, x2 = 0.859",0.001494 ± 1e-05 m3/mol
same,molar volume,"333.05 K, 843.8 kPa, x2 = 0.155",0.002929 ± 1e-05 m3/mol
same,molar volume,"333.07 K, 955.4 kPa, x2 = 0.331",0.002629 ± 1e-05 m3/mol
same,molar volume,"333.08 K, 1445.3 kPa, x2 = 0.733",0.001779 ± 1e-05 m3/mol
same,molar volume,"333.15 K, 1230.3 kPa, x2 = 0.563",0.002068 ± 1e-05 m3/mol
same,molar volume,"342.9 K, 1274.8 kPa, x2 = 0.563",0.002069 ± 1e-05 m3/mol
same,molar volume,"342.93 K, 1098.9 kPa, x2 = 0.459",0.002376 ± 1e-05 m3/mol
same,molar volume,"343.01 K, 1497.2 kPa, x2 = 0.733",0.00178 ± 1e-05 m3/mol
same,molar volume,"343.02 K, 991.5 kPa, x2 = 0.331",0.00263 ± 1e-05 m3/mol
same,molar volume,"343.05 K, 877.3 kPa, x2 = 0.155",0.00293 ± 1e-05 m3/mol
same,molar volume,"343.06 K, 1785.7 kPa, x2 = 0.859",0.001494 ± 1e-05 m3/mol
same,molar volume,"343.07 K, 1291.7 kPa, x2 = 0.642",0.002062 ± 1e-05 m3/mol
same,molar volume,"343.2 K, 933 kPa, x2 = 0.254",0.002783 ± 1e-05 m3/mol
same,molar volume,"352.96 K, 1140 kPa, x2 = 0.459",0.002377 ± 1e-05 m3/mol
same,molar volume,"353.01 K, 1320.4 kPa, x2 = 0.563",0.00207 ± 1e-05 m3/mol
same,molar volume,"353.02 K, 910 kPa, x2 = 0.155",0.002931 ± 1e-05 m3/mol
same,molar volume,"353.03 K, 1336.3 kPa, x2 = 0.642",0.002062 ± 1e-05 m3/mol
same,molar volume,"353.03 K, 1847.2 kPa, x2 = 0.859",0.001495 ± 1e-05 m3/mol
same,molar volume,"353.1 K, 1027.7 kPa, x2 = 0.331",0.002631 ± 1e-05 m3/mol
same,molar volume,"353.12 K, 967.3 kPa, x2 = 0.254",0.002784 ± 1e-05 m3/mol
same,molar volume,"353.14 K, 1549.7 kPa, x2 = 0.733",0.001781 ± 1e-05 m3/mol
same,molar volume,"362.89 K, 1178.4 kPa, x2 = 0.459",0.002378 ± 1e-05 m3/mol
same,molar volume,"362.94 K, 1380.5 kPa, x2 = 0.642",0.002063 ± 1e-05 m3/mol
same,molar volume,"363.03 K, 1000.8 kPa, x2 = 0.254",0.002786 ± 1e-05 m3/mol
same,molar volume,"363.05 K, 1365.6 kPa, x2 = 0.563",0.002071 ± 1e-05 m3/mol
same,molar volume,"363.08 K, 942.8 kPa, x2 = 0.155",0.002933 ± 1e-05 m3/mol
same,molar volume,"363.08 K, 1908.8 kPa, x2 = 0.859",0.001496 ± 1e-05 m3/mol
same,molar volume,"363.12 K, 1601.3 kPa, x2 = 0.733",0.001781 ± 1e-05 m3/mol
same,molar volume,"363.14 K, 1063.4 kPa, x2 = 0.331",0.002632 ± 1e-05 m3/mol
